Active and inactive are the calls of the source. How the calls were made is not given here.
Assay: cytotoxicity of LYPLA inhibitor compounds, late-stage follow-up, cytotoxicity control for LYPLA1/LYPLA2 inhibitor project, cell-based, absorbance readout, serum-free and serum-supplemented medium (AID 743127)
Settings: cell viability, serum-free or serum medium

Row | Compound | CC50 (in serum-free medium) | CC50 (in serum-supplemented medium)
1 | O=C(ON1C(=O)C2CN(C(=O)N3CCOCC3)CCN2C1=O)N1CCC(CCc2ccc(Cl)cc2)CC1 (centres undefined) | > 100 µM (inactive) | 100 µM (inactive)
2 | O=C(ON1C(=O)C2CN(C(=O)N3CCCCC3)CCN2C1=O)N1CCC(CCc2ccc(Cl)cc2)CC1 (centres undefined) | > 10 µM (inactive) | > 10 µM (inactive)

Source: PubChem BioAssay AID743127 (The Scripps Research Institute Molecular Screening Center, 2013)
